Experiment [1] has as its system B-lymphocyte cancer cells (U266). The experiment is described as follows: In vitro cytotoxicity, CellTiter-Glo 96 h, U266. The settings on record: Homo sapiens, U-266, read-out: Cytotoxic potency as free drug, IC50, U266. (In general: In ATP-based viability assays light output follows the ATP content of the culture.)
Method: (§1) In vitro potency was assessed on multiple cancer cell lines. All cell lines were authenticated by STR profiling at IDEXX Bioresearch and cultured for no more than 2 months after resuscitation. Cells cultured in log-phase growth were seeded for 24 hours in 96-well plates containing 150 μl RPMI 1640 supplemented with 20% FBS. Serial dilutions of antibody-drug conjugates in cell culture media were prepared at 4× working concentrations, and 50 μl of each dilution was added to the 96-well plates. Following addition of test articles, cells were incubated with test articles for 4 days at 37° C. After 96 hours, growth inhibition was assessed by CellTiter-Glo® (Promega, Madison, Wis.) and luminescence was measured on a plate reader.
(§2) Cell viability was determined by CellTiter-Glo staining after 96 h exposure to ADC. […] Ag1 is an antibody targeting a ubiquitous and readily internalizable antigen on cancer cells, Ag2 is cAC10 antibody targeting CD30(+) cancer cells, Ag3 is h1F6 antibody targeting CD70(+) cancer cells, Ag4 is hMEM102 antibody targeting CD48(+) cancer cells, Ag5 is h20F3 antibody targeting NTB-A expressing cancer cells, and h00 is a non-binding control antibody.
Experiment [2] has as its system Hodgkin's lymphoma cells (L540cy). The experiment is described as follows: In vitro cytotoxicity, CellTiter-Glo 96 h, L540cy. The settings on record: read-out: Cytotoxic potency (IC50 class), L540cy.
Method: as §1
(§3) Cell viability was determined by CellTiter-Glo staining after 96 h exposure to ADC.
The subject of experiment [3] is Burkitt's lymphoma cells (Ramos). The experiment is described as follows: In vitro cytotoxicity, CellTiter-Glo 96 h, Ramos. The settings on record: Homo sapiens, read-out: Cytotoxic potency as free drug, IC50, Ramos.
Method: as §1, §3
Experiment [4] concerns melanoma cells (SK-MEL-5). The experiment is described as follows: In vitro cytotoxicity, CellTiter-Glo 96 h, SK-MEL-5. The settings on record: Homo sapiens, SK-MEL-5, read-out: Cytotoxic potency as free drug, IC50, SK-MEL-5.
Method: as §1, §2
Experiment [5] concerns multiple myeloma cells (MM.1R). The experiment is described as follows: In vitro cytotoxicity, CellTiter-Glo 96 h, MM.1R. The settings on record: read-out: Cytotoxic potency (IC50 class), MM.1R.
Method: as §1, §2
Experiment [6] concerns pancreatic cancer cells (BxPC3). The experiment is described as follows: In vitro cytotoxicity, CellTiter-Glo 96 h, BxPC3. The settings on record: Homo sapiens, BXPC-3, read-out: Cytotoxic potency (IC50 class), BxPC3.
Method: as §1, §3
The subject of experiment [7] is acute promyelocytic leukemia cells (HL-60). The experiment is described as follows: In vitro cytotoxicity, CellTiter-Glo 96 h, HL-60. The settings on record: Homo sapiens, HL-60, read-out: Cytotoxic potency (IC50 class), HL-60.
Method: as §1, §2
The subject of experiment [8] is renal carcinoma cells (786-O). The experiment is described as follows: In vitro cytotoxicity, CellTiter-Glo 96 h, 786-O. The settings on record: Homo sapiens, 786-0, read-out: Cytotoxic potency (IC50 class), 786-O.
Method: as §1, §3
Experiment [9] concerns multiple drug resistant acute promyelocytic leukemia cells (HL-60/RV). The experiment is described as follows: In vitro cytotoxicity, CellTiter-Glo 96 h, HL60/RV. The settings on record: Homo sapiens, HL-60, read-out: Cytotoxic potency (IC50 class), HL60/RV.
In experiment [10] the test system is B-lymphocyte cancer cells (SU-DHL-4). The experiment is described as follows: In vitro cytotoxicity, CellTiter-Glo 96 h, SU-DHL-4. The settings on record: Homo sapiens, SU-DHL-4, read-out: Cytotoxic potency as free drug, IC50, SU-DHL-4.
Method: as §1, §2
The test system of experiment [11] is acute myeloid leukemia cells (MOLM13). The experiment is described as follows: In vitro cytotoxicity, CellTiter-Glo 96 h, MOLM13. The settings on record: Homo sapiens, MOLM-13, read-out: Cytotoxic potency as free drug, IC50, MOLM13.
Method: as §1, §3

Take `CC[C@@]1(O)C(=O)OCc2c1cc1n(c2=O)Cc2c-1nc1cc3c(cc1c2CN(CCO)CCO)OCO3` [Compound 5p]: the IC50 in [1] fell in the range of 0.01 to 0.1 µM; in experiment [2], 0.01 to 0.1 µM; in experiment [3], 0.001 to 0.01 µM; in experiment [4], 0.01 to 0.1 µM; in experiment [5] it was 0.001 to 0.01 µM; in experiment [6], 0.01 to 0.1 µM. In addition, the IC50 is 0.1 to 1 µM in experiment [7]; 0.01 to 0.1 µM in experiment [8]; 0.1 to 1 µM in experiment [9]; 0.01 to 0.1 µM in experiment [10]; 0.01 to 0.1 µM in experiment [11].
Take `CC[C@@]1(O)C(=O)OCc2c1cc1n(c2=O)Cc2c-1nc1cc3c(cc1c2CN1CCOCC1)OCO3` [Compound 5g]: the IC50 fell in the range of 0.001 to 0.01 µM in experiment [1]; 0.001 to 0.01 µM in [2]; 0.0001 to 0.001 µM in experiment [3]; 0.001 to 0.01 µM in experiment [4]; 0.001 to 0.01 µM in experiment [5]; 0.001 to 0.01 µM in [6]. Besides, the IC50 in experiment [7], in experiment [8], in experiment [9], in [10] and in experiment [11] was 0.001 to 0.01 µM in each case.
Take `CC[C@@]1(O)C(=O)OCc2c1cc1n(c2=O)Cc2cc3cc4c(cc3nc2-1)OCO4` [Compound 6o]: the IC50 in experiment [1] fell in the range of 0.001 to 0.01 µM; in experiment [2] it was 0.001 to 0.01 µM; in [3], 0.0001 to 0.001 µM; in [4], 0.001 to 0.01 µM; in experiment [5], 0.001 to 0.01 µM; in [6] it was 0.001 to 0.01 µM. Moreover, the IC50 fell in the range of 0.1 to 1 µM in experiment [7]; 0.001 to 0.01 µM in experiment [8]; 0.01 to 0.1 µM in experiment [9]; 0.001 to 0.01 µM in experiment [10]; 0.01 to 0.1 µM in experiment [11].
Regarding `CC[C@@]1(O)C(=O)OCc2c1cc1n(c2=O)Cc2c-1nc1cc3c(cc1c2CN(C)C1CCCC[C@H]1NC)OCO3` (stereo partly drawn) [Compound 5aa], the IC50 in experiment [1] was 0.01 to 0.1 µM; in [2], 0.01 to 0.1 µM; in experiment [3], 0.001 to 0.01 µM; in [4], 0.01 to 0.1 µM; in experiment [5], 0.01 to 0.1 µM; in experiment [6], 0.1 to 1 µM. Moreover, the IC50 in [7] is 0.1 to 1 µM; in experiment [8] it was 0.01 to 0.1 µM; in experiment [9] it was 0.1 to 1 µM; in [10], 0.01 to 0.1 µM; in experiment [11], 0.01 to 0.1 µM.
With `CC[C@@]1(O)C(=O)OCc2c1cc1n(c2=O)Cc2c-1nc1cc3c(cc1c2CC(C)C)OCO3` [Compound 6f], the IC50 in experiment [1], in [2], in [3], in experiment [4], in experiment [5] and in experiment [6] was 0.001 to 0.01 µM in each case. Moreover, the IC50 in experiment [7] was in the range of 0.01 to 0.1 µM; in [8], 0.001 to 0.01 µM; in [9], 0.001 to 0.01 µM; in [10], 0.001 to 0.01 µM; in experiment [11] it was 0.001 to 0.01 µM.
Consider `CC[C@@]1(O)C(=O)OCc2c1cc1n(c2=O)Cc2c-1nc1cc3c(cc1c2CNc1ccccc1)OCO3` [Compound 5b], for which the IC50 in experiment [1] lay in the range of 0.001 to 0.01 µM; in [2], 0.0001 to 0.001 µM; in experiment [3], 0.0001 to 0.001 µM; in [4], 0.001 to 0.01 µM; in experiment [5], 0.001 to 0.01 µM; in [6], 0.001 to 0.01 µM. The IC50 in experiment [7] is 0.01 to 0.1 µM; in experiment [8] it was 0.001 to 0.01 µM; in experiment [9], 0.001 to 0.01 µM; in experiment [10] it was 0.0001 to 0.001 µM; in experiment [11], 0.01 to 0.1 µM.
As for `CC[C@@]1(O)C(=O)OCc2c1cc1n(c2=O)Cc2c-1nc1cc3c(cc1c2CNCCOCCOCCN)OCO3` [Compound 5y], the IC50 in experiment [1] was in the range of 0.001 to 0.01 µM; in experiment [2], 0.001 to 0.01 µM; in experiment [3] it was 0.0001 to 0.001 µM; in experiment [4] it was 0.001 to 0.01 µM; in experiment [5], 0.001 to 0.01 µM; in [6], 0.001 to 0.01 µM. Further, the IC50 in [7] is 0.01 to 0.1 µM; in experiment [8], 0.001 to 0.01 µM; in [9], 0.01 to 0.1 µM; in [10] it was 0.001 to 0.01 µM; in [11] it was 0.001 to 0.01 µM.
Regarding `CC[C@@]1(O)C(=O)OCc2c1cc1n(c2=O)Cc2c-1nc1cc3c(cc1c2C)OCO3` [Compound 6p], the IC50 in experiment [1], in experiment [2], in experiment [3], in experiment [4], in experiment [5] and in experiment [6] was 0.0001 to 0.001 µM in each case. Besides, the IC50 in [7] was in the range of 0.01 to 0.1 µM; in [8], 0.0001 to 0.001 µM; in [9], 0.001 to 0.01 µM; in [10] it was 0.0001 to 0.001 µM; in [11] it was 0.001 to 0.01 µM.
On to `CC[C@@]1(O)C(=O)OCc2c1cc1n(c2=O)Cc2c-1nc1cc3c(cc1c2CNC12CC4CC(CC(C4)C1)C2)OCO3` [Compound 5s], for which the IC50 in experiment [1], in experiment [2], in experiment [3], in experiment [4], in experiment [5] and in experiment [6] was 0.01 to 0.1 µM throughout. Moreover, the IC50 in experiment [7] is 0.1 to 1 µM; in experiment [8], 0.01 to 0.1 µM; in experiment [9], 0.01 to 0.1 µM; in [10], 0.01 to 0.1 µM; in experiment [11] it was 0.01 to 0.1 µM.
For the compound `CC[C@@]1(O)C(=O)OCc2c1cc1n(c2=O)Cc2c-1nc1cc3c(cc1c2CNC)OCO3` [Compound 5], the IC50 in experiment [1] lay in the range of 0.001 to 0.01 µM; in experiment [2] it was 0.001 to 0.01 µM; in experiment [3] it was 0.001 to 0.01 µM; in experiment [4] it was 0.001 to 0.01 µM; in experiment [5], 0.001 to 0.01 µM; in experiment [6] it was 0.01 to 0.1 µM. The IC50 in experiment [7] lay within 0.01 to 0.1 µM; in experiment [8], 0.001 to 0.01 µM; in experiment [9], 0.01 to 0.1 µM; in experiment [10], 0.001 to 0.01 µM; in experiment [11], 0.001 to 0.01 µM.
For `CC[C@@]1(O)C(=O)OCc2c1cc1n(c2=O)Cc2c-1nc1cc3c(cc1c2CNCCc1ccccc1)OCO3` [Compound 5z], the IC50 in [1] lay in the range of 0.01 to 0.1 µM; in [2] it was 0.001 to 0.01 µM; in experiment [3], 0.001 to 0.01 µM; in experiment [4], 0.01 to 0.1 µM; in experiment [5], 0.001 to 0.01 µM; in experiment [6], 0.01 to 0.1 µM. The IC50 in [7] lay in the range of 0.01 to 0.1 µM; in experiment [8], 0.001 to 0.01 µM; in [9] it was 0.01 to 0.1 µM; in experiment [10], 0.001 to 0.01 µM; in [11], 0.01 to 0.1 µM.
On to `CCCCNCc1c2c(nc3cc4c(cc13)OCO4)-c1cc3c(c(=O)n1C2)COC(=O)[C@]3(O)CC` [Compound 5k], for which the IC50 in [1], in experiment [2], in [3], in experiment [4], in experiment [5] and in experiment [6] was 0.001 to 0.01 µM throughout. In addition, the IC50 was 0.01 to 0.1 µM in experiment [7]; 0.001 to 0.01 µM in experiment [8]; 0.001 to 0.01 µM in [9]; 0.001 to 0.01 µM in experiment [10]; 0.001 to 0.01 µM in [11].
For the compound `CCCCCCc1c2c(nc3cc4c(cc13)OCO4)-c1cc3c(c(=O)n1C2)COC(=O)[C@]3(O)CC` [Compound 6k], the IC50 lay in the range of 0.001 to 0.01 µM in experiment [1]; 0.001 to 0.01 µM in experiment [2]; 0.0001 to 0.001 µM in experiment [3]; 0.001 to 0.01 µM in [4]; 0.001 to 0.01 µM in [5]; 0.001 to 0.01 µM in experiment [6]. The IC50 in experiment [7] lay in the range of 0.1 to 1 µM; in experiment [8] it was 0.001 to 0.01 µM; in experiment [9], 0.01 to 0.1 µM; in experiment [10], 0.001 to 0.01 µM; in [11] it was 0.01 to 0.1 µM.
`CC[C@@]1(O)C(=O)OCc2c1cc1n(c2=O)Cc2c-1nc1cc3c(cc1c2CN)OCO3` [Compound 4, 7-methylamino Derivative-methylenedioxy camptothecin]: the IC50 in experiment [1], in experiment [2], in experiment [3], in [4], in experiment [5] and in [6] was 0.001 to 0.01 µM in each case. For the same compound, the IC50 in experiment [7] is 0.01 to 0.1 µM; in [8], 0.001 to 0.01 µM; in [9] it was 0.01 to 0.1 µM; in experiment [10], 0.0001 to 0.001 µM; in [11] it was 0.001 to 0.01 µM.
As for `CC[C@@]1(O)C(=O)OCc2c1cc1n(c2=O)Cc2c-1nc1cc(F)c(C)c3c1c2[C@@H](NC(=O)CO)CC3` [Compound 8a], the IC50 in [1] was 0.01 to 0.1 µM; in experiment [2], 0.001 to 0.01 µM; in [3] it was 0.001 to 0.01 µM; in experiment [4], 0.01 to 0.1 µM; in experiment [5], 0.001 to 0.01 µM; in experiment [6] it was 0.01 to 0.1 µM. Also, the IC50 in experiment [7] fell in the range of 0.1 to 1 µM; in experiment [8] it was 0.001 to 0.01 µM; in experiment [9] it was 0.01 to 0.1 µM; in [10] it was 0.001 to 0.01 µM; in [11] it was 0.01 to 0.1 µM.

Source of the values: patent publication US20190343828A1, “CAMPTOTHECIN PEPTIDE CONJUGATES” (SEATTLE GENETICS, INC., priority 2018, published 2019).
